# In patent US20040038856A1, “Treatment of fibroproliferative disorders using TGF-beta inhibitors” (priority 2002, published 2004):
# Test system: bleomycin rat model of pulmonary fibrosis
# Test: Bleomycin rat model of pulmonary fibrosis, day 14, dexamethasone and/or test compound
# Type: in vivo
# Details: Dex 2.0 mg/kg every other day, test compound 40 mg/kg twice a day
# Protocol: Rats were intubated with saline or 1 unit of bleomycin. After twenty four hours, rats were weighed and dosed with saline or 2.0 mg/kg of dexamethasone every other day and 1% methyl cellulose (MC) or 40 mg/kg of a test compound twice a day. On day 14, 1-3 hours after dosing, rat were sacrificed and lungs were inflated and collected for analysis.
# The primary end points of the analysis were the total hydroxyproline concentration per lung and lung capacity. The secondary end point was the body weight.
# The statistical analysis was done using one-way ANOVA with Bonferroni's Multiple Comparison Test.
compound,measurement,value
C[C@@H]1C[C@H]2[C@@H]3CCC4=CC(=O)C=C[C@]4(C)[C@@]3(F)[C@@H](O)C[C@]2(C)[C@@]1(O)C(=O)CO [dexamethasone],bleomycin-induced body weight loss,no effect
